Like-named read-outs stand apart in the source and are kept apart here.
Assays:
B16-F1 cells = test: Inhibiting melanin in cell line model, mouse melanoma B16-F1; type: cell-based; conditions: for inhibition of melanin production of mouse melanoma (microscopic image): 200 μg/ml, cultured 72 hours (FIG. 2); for inhibition at 200 µg/mL: Mus musculus, B16-F1, 200 μg/mL in medium
Procedure: (§1) In this example, the tyrosinase inhibitor of the present invention was used to inhibit melanin production in melanocytes. The cell lines used in this example are mouse melanoma (B16-F1; ATCC CRL-6323) and human epidermal melanocyte (HEM). After 72 hours, cells and cell culture medium were collected separately. Then, the collected cells were destroyed by ultrasonic for melanin examination.

[1] = system: human epidermal melanocyte (HEM); test: Inhibiting melanin in cell line model, human epidermal melanocyte (HEM); type: cell-based; conditions: 200 μg/mL in medium, 72 hours, compared with blank control group (FIG. 5)
Procedure: as §1

tyrosinase = test: Inhibiting tyrosinase (L-Dopa oxidation, dopachrome absorption at 492 nm); type: biochemical; conditions: series diluted sample, 0.1 U tyrosinase, 1 mM L-Dopa, 37° C., compared with blank control group (FIG. 1)
Procedure: In this example, 90 μL of 0.1 U tyrosinase solution was added in to the wells of a 96-well plate. Then, 50 μL of a series diluted sample was added into the wells as an experimental group or as a blank control group, wherein said sample is MOPS, SB-12(N-Dodecyl-N,N-dimethyl-3-ammonio-1-propanesulfonate), ACES or Tris-HCl, and 0.1 M phosphate buffer and a substance lysis solution were used as blank tests for the experimental group and the blank control group, respectively. Each sample in the experiment was at least triplicated. The test plate was placed at 37° C., 400 rpm for 5 min to mix the contents thereof homogeneously. Then, the test plate was placed into a machine for an absorption examination (492 nm). An average of two detected data was obtained as a background value. The test plate was then taken out, and 60 μL of 1 mM L-Dopa solution was added into each well. […] At this time, an average of two detected data was obtained as a test value.
In example 1, by using the tyrosinase inhibitor of the present invention, tyrosinase was inhibited to prevent melanin production. […] Accordingly, in this example, the absorption of the reaction at 492 nm was detected for examining the production of dopaquinone.
The data in the figure was calculated by the following formula: […]

[2] = 72 hours (FIG. 3), read-out: ability of inhibiting melanin production of B16-F1 cells
[3] = 72 hours, cell culture medium (FIG. 4), read-out: ability of inhibiting melanin secretion of B16-F1 cells

SMILES	inhibition of melanin production of mouse melanoma (microscopic image) (B16-F1 cells)	inhibition at 200 µg/mL (B16-F1 cells; [2])	inhibition at 200 µg/mL (B16-F1 cells; [3])	inhibition rate of melanin production of human epidermal melanocyte [1]	inhibition of tyrosinase activity (tyrosinase)
NC(=O)CNCCS(=O)(=O)O [ACES, N-(2-Acetamido)-2-aminoethanesulfonic acid]	significantly inhibit	35%	38.9%	inhibition rate was increased	significantly inhibit the activity of tyrosinase
O=S(=O)(O)CCCN1CCOCC1 [MOPS, 3-(N-Morpholino) propanesulfonic acid]	significantly inhibit	41.7%	42.3%	inhibition rate was increased	significantly inhibit the activity of tyrosinase

Source: patent US20110280815A1, “COMPOSITION FOR INHIBITING MELANIN PRODUCTION AND APPLICATION THEREOF” (priority 2010, published 2011)
